According to paper PMC9851200, “Multiparameter phenotypic screening for endogenous TFEB and TFE3 translocation identifies novel chemical series modulating lysosome function” (Autophagy, 2022):

Legend:
Format in all cases: binding
[1] = target: T1, kinases (KINOMEscan panel) (Homo sapiens, UniProt P51956); settings: kinase NEK3; NEW KINOMEscan
T1 sequence (P51956 1-506): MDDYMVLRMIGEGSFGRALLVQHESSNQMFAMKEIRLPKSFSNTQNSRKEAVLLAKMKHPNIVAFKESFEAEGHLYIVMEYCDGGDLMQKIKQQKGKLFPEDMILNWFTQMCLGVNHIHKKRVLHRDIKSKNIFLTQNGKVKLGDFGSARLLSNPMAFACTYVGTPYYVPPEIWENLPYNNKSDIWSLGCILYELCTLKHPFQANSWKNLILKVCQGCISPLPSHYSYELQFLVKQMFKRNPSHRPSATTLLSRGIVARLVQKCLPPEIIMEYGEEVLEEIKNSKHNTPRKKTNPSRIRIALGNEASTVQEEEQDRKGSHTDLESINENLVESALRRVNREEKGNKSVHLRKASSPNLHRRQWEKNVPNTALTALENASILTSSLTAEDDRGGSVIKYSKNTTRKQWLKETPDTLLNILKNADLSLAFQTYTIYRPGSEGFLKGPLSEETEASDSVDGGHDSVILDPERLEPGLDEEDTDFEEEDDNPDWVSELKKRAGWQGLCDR

[2] = target: kinases (KINOMEscan panel) (Homo sapiens, UniProt Q9Y6R4); settings: MAP3K4; NEW KINOMEscan
Chain of kinases (KINOMEscan panel) (Homo sapiens, UniProt Q9Y6R4) (Q9Y6R4 whole entry): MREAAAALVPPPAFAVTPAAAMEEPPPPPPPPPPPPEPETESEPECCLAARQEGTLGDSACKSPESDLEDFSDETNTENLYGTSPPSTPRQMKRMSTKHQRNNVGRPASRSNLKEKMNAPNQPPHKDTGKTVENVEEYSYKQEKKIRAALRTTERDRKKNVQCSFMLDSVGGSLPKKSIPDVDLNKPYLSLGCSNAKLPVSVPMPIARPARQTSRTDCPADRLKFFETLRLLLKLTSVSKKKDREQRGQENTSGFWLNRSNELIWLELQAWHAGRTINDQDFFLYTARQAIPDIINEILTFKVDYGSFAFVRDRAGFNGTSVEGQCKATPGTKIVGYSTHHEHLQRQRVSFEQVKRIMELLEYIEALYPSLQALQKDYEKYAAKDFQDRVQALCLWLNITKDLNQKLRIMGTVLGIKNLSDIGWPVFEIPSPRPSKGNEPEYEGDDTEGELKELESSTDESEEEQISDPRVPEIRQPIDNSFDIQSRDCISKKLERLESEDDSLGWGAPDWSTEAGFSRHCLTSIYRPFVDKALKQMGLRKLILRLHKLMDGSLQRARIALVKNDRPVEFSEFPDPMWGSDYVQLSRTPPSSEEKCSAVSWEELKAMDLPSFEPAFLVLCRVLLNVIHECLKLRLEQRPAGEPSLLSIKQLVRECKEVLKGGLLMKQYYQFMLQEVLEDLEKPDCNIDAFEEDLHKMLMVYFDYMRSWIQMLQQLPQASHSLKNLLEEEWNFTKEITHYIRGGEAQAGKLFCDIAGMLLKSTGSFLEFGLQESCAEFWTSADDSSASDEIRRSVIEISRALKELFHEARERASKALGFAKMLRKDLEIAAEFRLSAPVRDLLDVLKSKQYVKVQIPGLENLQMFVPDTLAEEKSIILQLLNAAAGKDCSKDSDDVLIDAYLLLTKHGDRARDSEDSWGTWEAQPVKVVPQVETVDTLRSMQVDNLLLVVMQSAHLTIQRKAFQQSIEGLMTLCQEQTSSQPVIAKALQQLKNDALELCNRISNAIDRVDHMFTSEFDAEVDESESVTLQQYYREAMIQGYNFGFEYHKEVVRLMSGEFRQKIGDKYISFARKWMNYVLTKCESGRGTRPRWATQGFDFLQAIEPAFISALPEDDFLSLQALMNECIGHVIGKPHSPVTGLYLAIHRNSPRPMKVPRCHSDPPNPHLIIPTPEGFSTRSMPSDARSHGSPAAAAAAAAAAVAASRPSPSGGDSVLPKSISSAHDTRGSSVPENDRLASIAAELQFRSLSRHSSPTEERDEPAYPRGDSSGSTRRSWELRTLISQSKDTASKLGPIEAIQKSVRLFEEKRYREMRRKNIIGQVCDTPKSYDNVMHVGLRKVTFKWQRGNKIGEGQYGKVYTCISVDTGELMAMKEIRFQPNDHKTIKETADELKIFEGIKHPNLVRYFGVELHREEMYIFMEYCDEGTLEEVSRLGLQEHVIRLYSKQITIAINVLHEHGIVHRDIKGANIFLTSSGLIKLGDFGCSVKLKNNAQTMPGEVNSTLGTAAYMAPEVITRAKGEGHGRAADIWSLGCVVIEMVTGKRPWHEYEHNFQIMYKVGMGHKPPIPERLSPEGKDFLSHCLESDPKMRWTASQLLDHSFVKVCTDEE

[3] = target: T2, kinases (KINOMEscan panel) (Homo sapiens, UniProt Q9UKI8); settings: kinase TLK1; NEW KINOMEscan
T2 sequence (Q9UKI8 1-766): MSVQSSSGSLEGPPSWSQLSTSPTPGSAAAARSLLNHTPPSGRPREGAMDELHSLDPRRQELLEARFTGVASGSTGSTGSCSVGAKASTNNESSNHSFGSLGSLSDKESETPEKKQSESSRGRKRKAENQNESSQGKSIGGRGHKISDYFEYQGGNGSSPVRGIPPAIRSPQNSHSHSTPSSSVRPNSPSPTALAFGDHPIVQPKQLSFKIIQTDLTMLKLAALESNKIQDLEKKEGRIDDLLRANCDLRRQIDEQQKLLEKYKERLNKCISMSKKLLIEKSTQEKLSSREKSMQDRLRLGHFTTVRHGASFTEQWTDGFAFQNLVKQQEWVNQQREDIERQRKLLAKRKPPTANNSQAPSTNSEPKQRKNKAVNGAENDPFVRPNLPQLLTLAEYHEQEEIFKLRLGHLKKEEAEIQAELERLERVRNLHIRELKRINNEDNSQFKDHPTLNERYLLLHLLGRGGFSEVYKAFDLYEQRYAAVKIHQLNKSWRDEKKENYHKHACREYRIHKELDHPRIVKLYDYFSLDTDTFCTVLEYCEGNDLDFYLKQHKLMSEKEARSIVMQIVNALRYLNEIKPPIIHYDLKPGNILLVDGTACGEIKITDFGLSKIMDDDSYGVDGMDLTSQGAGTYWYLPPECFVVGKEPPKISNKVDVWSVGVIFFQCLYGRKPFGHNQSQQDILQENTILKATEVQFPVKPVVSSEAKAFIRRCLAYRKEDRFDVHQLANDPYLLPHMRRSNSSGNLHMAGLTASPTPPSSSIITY

[4] = target: kinases (KINOMEscan panel) (Homo sapiens, UniProt P15056); settings: BRAF; NEW KINOMEscan
Chain of kinases (KINOMEscan panel) (Homo sapiens, UniProt P15056) (P15056 whole entry): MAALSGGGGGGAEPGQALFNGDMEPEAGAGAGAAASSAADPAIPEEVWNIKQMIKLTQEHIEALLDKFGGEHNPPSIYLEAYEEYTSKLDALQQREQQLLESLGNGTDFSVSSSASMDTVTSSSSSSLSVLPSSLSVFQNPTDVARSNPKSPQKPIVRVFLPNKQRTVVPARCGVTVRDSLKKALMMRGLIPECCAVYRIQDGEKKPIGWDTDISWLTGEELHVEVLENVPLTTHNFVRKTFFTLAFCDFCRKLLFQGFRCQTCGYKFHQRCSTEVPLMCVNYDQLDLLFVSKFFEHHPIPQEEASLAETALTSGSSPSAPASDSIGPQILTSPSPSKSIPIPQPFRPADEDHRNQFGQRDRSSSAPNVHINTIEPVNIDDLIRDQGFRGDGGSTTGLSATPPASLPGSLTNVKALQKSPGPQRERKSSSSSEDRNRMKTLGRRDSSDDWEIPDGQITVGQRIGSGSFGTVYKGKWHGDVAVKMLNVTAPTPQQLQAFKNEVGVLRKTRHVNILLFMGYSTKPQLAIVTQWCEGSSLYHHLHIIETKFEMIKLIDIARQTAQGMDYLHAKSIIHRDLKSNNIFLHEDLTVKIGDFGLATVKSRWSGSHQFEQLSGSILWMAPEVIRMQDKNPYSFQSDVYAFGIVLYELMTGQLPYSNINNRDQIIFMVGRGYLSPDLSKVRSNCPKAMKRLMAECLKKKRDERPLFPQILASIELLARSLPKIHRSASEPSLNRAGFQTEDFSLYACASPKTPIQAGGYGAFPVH

[5] = target: T3, kinases (KINOMEscan panel) (Homo sapiens, UniProt Q96PY6); settings: kinase NEK1; NEW KINOMEscan
T3 sequence (Q96PY6 1-1258): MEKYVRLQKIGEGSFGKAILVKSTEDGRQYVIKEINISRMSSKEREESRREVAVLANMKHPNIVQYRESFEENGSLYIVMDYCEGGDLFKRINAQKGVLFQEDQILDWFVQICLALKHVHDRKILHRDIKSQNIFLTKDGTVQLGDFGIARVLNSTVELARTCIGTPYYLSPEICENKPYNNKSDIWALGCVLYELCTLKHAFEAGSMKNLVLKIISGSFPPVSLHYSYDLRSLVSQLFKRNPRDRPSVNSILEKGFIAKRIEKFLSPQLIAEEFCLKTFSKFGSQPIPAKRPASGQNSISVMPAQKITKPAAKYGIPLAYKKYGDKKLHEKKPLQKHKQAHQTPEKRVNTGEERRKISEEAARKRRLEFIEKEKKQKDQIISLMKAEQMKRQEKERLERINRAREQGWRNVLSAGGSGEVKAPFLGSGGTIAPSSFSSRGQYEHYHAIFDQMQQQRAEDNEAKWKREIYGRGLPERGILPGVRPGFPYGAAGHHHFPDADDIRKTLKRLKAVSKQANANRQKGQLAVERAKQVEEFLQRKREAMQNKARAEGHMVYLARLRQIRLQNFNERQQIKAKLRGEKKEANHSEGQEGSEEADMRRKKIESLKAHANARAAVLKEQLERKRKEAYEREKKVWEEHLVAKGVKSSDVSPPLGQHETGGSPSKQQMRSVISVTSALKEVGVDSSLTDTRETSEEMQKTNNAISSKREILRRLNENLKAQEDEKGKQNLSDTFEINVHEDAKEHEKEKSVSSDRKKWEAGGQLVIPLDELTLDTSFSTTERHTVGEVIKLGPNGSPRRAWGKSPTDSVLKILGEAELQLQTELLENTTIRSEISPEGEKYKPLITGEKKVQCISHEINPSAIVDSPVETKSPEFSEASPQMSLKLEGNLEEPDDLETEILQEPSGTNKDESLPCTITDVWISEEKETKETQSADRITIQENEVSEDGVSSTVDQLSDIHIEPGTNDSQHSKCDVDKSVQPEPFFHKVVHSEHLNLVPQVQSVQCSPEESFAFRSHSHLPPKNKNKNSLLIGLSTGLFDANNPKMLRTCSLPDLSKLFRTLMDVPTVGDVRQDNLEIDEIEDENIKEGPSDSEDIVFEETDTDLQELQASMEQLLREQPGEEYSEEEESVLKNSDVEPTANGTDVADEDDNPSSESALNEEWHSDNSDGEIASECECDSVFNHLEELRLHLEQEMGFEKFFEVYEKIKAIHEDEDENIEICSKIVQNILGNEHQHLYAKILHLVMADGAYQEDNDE

Structure (SMILES) | KINOMEscan NEK3 [1] | KINOMEscan MAP3K4 [2] | KINOMEscan TLK1 [3] | KINOMEscan BRAF [4] | KINOMEscan NEK1 [5]
Cc1cccc(-c2nc(Nc3ccc4nn(C)cc4c3)c3ccccc3n2)n1 [NK167] | 46 | 3 | 0 | 0 | 0
Cc1cccc(-c2nc(N(C)c3ccc4ncsc4c3)c3ccccc3n2)n1 [NK-161] | 33 | 0 | 0 | 0 | 0
